Reference: DBAASP
Converted amounts (≈) assume the structure as drawn. “And” between values parts separate entries of the source, which are not always exact repeats. Identical values can stand only once. Each block holds one compound with its values, some of them ahead of it.

Tests used:
Assay in all cases: ≥ marks a high value that may be exact or a test limit, other limits are often not marked, values filed in µg/mL are converted to µM
[1] = system: Candida albicans ATCC 10231
Candida glabrata 090902 = system: Candida glabrata 090902
[2] = system: Enterobacter cloacae CGMCC 1.57
[3] = system: Enterococcus faecalis 981
[4] = system: Enterococcus faecium 091299
[5] = system: Escherichia coli ATCC 25922
[6] = system: Klebsiella pneumoniae 08040724
Nocardia asteroides = system: Nocardia asteroides
[7] = system: Pseudomonas aeruginosa CGMCC 1.50
[8] = system: Psychrobacter faecalis X29
[9] = system: Staphylococcus aureus ATCC 25923
Escherichia coli W160-37 = system: Escherichia coli W160-37
[10] = system: Pseudomonas aeruginosa NCTC 6751
[11] = system: Staphylococcus aureus ATCC 8530
Arthrobacter sp. = system: Arthrobacter sp.
Bacillus subtilis = system: Bacillus subtilis
Bacillus thuringiensis = system: Bacillus thuringiensis
Escherichia coli = system: Escherichia coli
Pseudomonas sp. ADP = system: Pseudomonas sp. ADP
Staphylococcus aureus = system: Staphylococcus aureus
[12] = system: Staphylococcus aureus A170
[13] = system: Staphylococcus epidermidis
[14] = system: Bacillus subtilis KCTC 3068
[15] = system: Escherichia coli CCARM 1229
[16] = system: Escherichia coli CCARM 1238
[17] = system: Escherichia coli KCTC 1682
[18] = system: Pseudomonas aeruginosa KCTC 1637
[19] = system: Salmonella typhimurium CCARM 8003
[20] = system: Salmonella typhimurium CCARM 8009
[21] = system: Salmonella typhimurium KCTC 1926
[22] = system: Staphylococcus aureus CCARM 3089
[23] = system: Staphylococcus aureus CCARM 3114
[24] = system: Staphylococcus aureus KCTC 1621
[25] = system: Staphylococcus epidermidis KCTC 1917
[26] = system: Candida albicans ATCC 37092
[27] = system: Candida tropicalis ATCC 37097
[28] = system: Enterococcus faecalis ATCC 29212
[29] = system: Klebsiella oxytoca ATCC 49131
[30] = system: Micrococcus luteus ATCC 49732
[31] = system: Proteus vulgaris ATCC 49132
[32] = system: Pseudomonas aeruginosa ATCC 27853
[33] = system: Staphylococcus aureus ATCC 29213
[34] = system: Aspergillus niger CECT 2694
[35] = system: Fusarium oxysporum f. sp. lycopersici ATCC 201829
[36] = system: Penicillium expansum EPS 26
[37] = system: Rhizopus stolonifer CECT 2344

Structure (SMILES): CC[C@H](C)[C@H](NC(=O)[C@H](CCCCN)NC(=O)[C@H](CC(C)C)NC(=O)[C@H](C)NC(=O)[C@@H](NC(=O)CNC(=O)[C@H](CCSC)NC(=O)[C@@H](N)Cc1ccccc1)[C@@H](C)O)C(=O)N[C@@H](C)C(=O)N[C@@H](C)C(=O)N[C@@H](CC(N)=O)C(=O)N[C@H](C(=O)N[C@@H](CC(C)C)C(=O)N1CCC[C@H]1C(=O)N[C@@H](C)C(=O)N[C@@H](C)C(=O)N[C@@H](Cc1ccccc1)C(=O)N[C@H]1CSSC[C@@H](C(=O)O)NC(=O)[C@H](CCCCN)NC(=O)[C@H](CCCCN)NC(=O)[C@H](Cc2ccccc2)NC(=O)[C@H]([C@@H](C)CC)NC(=O)[C@H](CCCCN)NC1=O)C(C)C [FMGTALKIAANVLPAAFCKIFKKC]
MIC [1]: 100 µM (≈ 258 µg/mL) | MIC (Candida glabrata 090902): 12.5 µM (≈ 32.3 µg/mL) | MIC [2]: ≥ 100 µM | MIC [3]: 3.1 µM (≈ 8.01 µg/mL) | MIC [4]: ≥ 100 µM | MIC [5]: 200 µM (≈ 517 µg/mL) | MIC [6]: ≥ 400 µM | MIC (Nocardia asteroides): 3.1 µM (≈ 8.01 µg/mL) | MIC [7]: ≥ 400 µM | MIC [8]: 12.5 µM (≈ 32.3 µg/mL) | MIC [9]: 3.1 µM (≈ 8.01 µg/mL)

Structure (SMILES): CC(=O)N[C@@H](Cc1ccccc1)C(=O)N[C@@H](CCCN=C(N)N)C(=O)N[C@@H](CCCCN)C(=O)N[C@@H](CC(C)C)C(=O)N[C@@H](Cc1ccccc1)C(=O)N[C@@H](CCCN=C(N)N)C(=O)N[C@H](C(=O)N[C@@H](Cc1ccc(O)cc1)C(=O)N[C@@H](CO)C(=O)N[C@@H](CC(N)=O)C(=O)N[C@@H](Cc1ccccc1)C(=O)N[C@@H](CC(C)C)C(=O)N[C@@H](CCCN=C(N)N)C(=O)NCC(=O)N[C@@H](CCCCN)C(=O)N[C@@H](CC(C)C)C(=O)N[C@@H](CCCCN)C(=O)N[C@@H](CC(C)C)C(N)=O)C(C)C [FRKLFRVYSNFLRGKLKL]
MIC (Escherichia coli W160-37): 11 µM (≈ 25.6 µg/mL) | MIC [10]: 22 µM (≈ 51.2 µg/mL) | MIC [11]: 11 µM (≈ 25.6 µg/mL)

Structure (SMILES): CC[C@H](C)[C@H](NC(=O)[C@H](C)NC(=O)[C@H](CC(C)C)NC(=O)[C@H](Cc1c[nH]c2ccccc12)NC(=O)[C@H](CC(C)C)NC(=O)[C@@H](N)CCCN=C(N)N)C(=O)N[C@@H](Cc1c[nH]c2ccccc12)C(=O)N[C@@H](CCCN=C(N)N)C(=O)N[C@@H](CCCN=C(N)N)C(N)=O [RLWLAIWRR]
MIC [14]: 2 µM (≈ 2.54 µg/mL) | MIC [15]: 8 µM (≈ 10.1 µg/mL) | MIC [16]: 4 µM (≈ 5.07 µg/mL) | MIC [17]: 2 µM (≈ 2.54 µg/mL) | MIC [18]: 11.3 µM (≈ 14.4 µg/mL) | MIC [19]: 16 µM (≈ 20.3 µg/mL) | MIC [20]: 8 µM (≈ 10.1 µg/mL) | MIC [21]: 8 µM (≈ 10.1 µg/mL) | MIC [22]: 2 µM (≈ 2.54 µg/mL) | MIC [23]: 4 µM (≈ 5.07 µg/mL) | MIC [24]: 2 µM (≈ 2.54 µg/mL) | MIC [25]: 1 µM (≈ 1.27 µg/mL)

Structure (SMILES): CC(C)C[C@H](NC(=O)[C@H](CCCN=C(N)N)NC(=O)[C@H](CCCN=C(N)N)NC(=O)[C@H](Cc1ccc(O)cc1)NC(=O)[C@H](CC(C)C)NC(=O)[C@H](CCCN=C(N)N)NC(=O)[C@H](CCCN=C(N)N)NC(=O)[C@H](Cc1ccc(O)cc1)NC(=O)[C@H](CC(C)C)NC(=O)[C@H](CCCN=C(N)N)NC(=O)[C@H](CCCN=C(N)N)NC(=O)[C@H](Cc1ccc(O)cc1)NC(=O)[C@H](CC(C)C)NC(=O)[C@@H](N)CCCN=C(N)N)C(=O)N[C@@H](Cc1ccc(O)cc1)C(=O)N[C@@H](CCCN=C(N)N)C(N)=O [RLYRRLYRRLYRRLYR]
MIC [26]: 1.2 µM and 1.9 µM | MIC [27]: 0.8 µM and 1.2 µM | MIC [28]: 0.9 µM and 1.4 µM | MIC [5]: 1 µM and 0.7 µM | MIC [29]: 0.9 µM (≈ 2.13 µg/mL) | MIC [30]: 0.6 µM (≈ 1.42 µg/mL) | MIC [31]: 1.8 µM and 1.2 µM | MIC [32]: 0.5 µM and 1 µM | MIC [33]: 1.8 µM and 1.1 µM

Structure (SMILES): CC[C@H](C)[C@H](NC(=O)[C@H](CCCCN)NC(=O)[C@H](CCCCN)NC(=O)[C@H](Cc1ccccc1)NC(=O)[C@H](CC(C)C)NC(=O)[C@H](CCCCN)NC(=O)[C@@H](N)Cc1ccc(O)cc1)C(=O)N[C@@H](CC(C)C)C(=O)N[C@@H](CCCCN)C(=O)N[C@H](C(=O)N[C@@H](CC(C)C)C(N)=O)C(C)C [YKLFKKILKVL]
MIC [34]: 17.3 µM (≈ 24.1 µg/mL) | MIC [35]: 1.73 µM (≈ 2.41 µg/mL) | MIC [36]: ≥ 35.4 µM | MIC [37]: ≥ 70.7 µM

The next lines start with the values.

MIC (Arthrobacter sp.): ≥ 46.3 µM | MIC (Bacillus subtilis): 12.4 µM (≈ 12.7 µg/mL) | MIC (Bacillus thuringiensis): 30.8 µM (≈ 31.5 µg/mL) | MIC (Escherichia coli): 77.2 µM (≈ 79 µg/mL) | MIC (Pseudomonas sp. ADP): 15.4 µM (≈ 15.8 µg/mL) | MIC (Staphylococcus aureus): 3 µM (≈ 3.07 µg/mL)
Structure (SMILES): CC[C@H](C)[C@H](NC(=O)[C@H](CCCN=C(N)N)NC(=O)[C@H](CC(C)C)NC(=O)CN)C(=O)N[C@@H](CC(C)C)C(=O)N[C@@H](CC(C)C)C(=O)N[C@@H](CC(C)C)C(=O)N[C@@H](CCCCN)C(=O)N[C@H](C(N)=O)C(C)C [GLRILLLKV]

MIC [12]: 14.8 µM (≈ 20 µg/mL) | MIC [13]: 7.41 µM (≈ 10 µg/mL)
Structure (SMILES): CC[C@H](C)[C@H](NC(=O)[C@@H]1CCCN1C(=O)[C@H](CC(C)C)NC(=O)[C@@H](N)CC(C)C)C(=O)N[C@H](C(=O)NCC(=O)N[C@@H](C)C(=O)N[C@@H](CC(C)C)C(=O)N[C@@H](CC(C)C)C(=O)N[C@@H](CCCCN)C(=O)N[C@@H](CO)C(=O)N[C@@H](CC(C)C)C(=O)N[C@@H](CC(C)C)C(=O)O)C(C)C [LLPIVGALLKSLL]
